Where “and” joins values, the source holds several entries; their conditions need not be identical. Equal values may be shown once.
Columns and labels:
QR2 expressed in HEK293T = biological target: T1, QR2 expressed in HEK293T (Homo sapiens, UniProt P16083); assay: Cellular thermal shift assay (CETSA; Tagg curves and ITDRF); type: cell-based; settings: 73°C; for EC50: n = 3, read-out: EC50, isothermal dose-response of QR2 stabilization; for QR2 stabilization signal, ITDRF (replicates): log[Inhibitor]
T1 construct: endogenous in cells; host or cells: HEK293T
T1 sequence (P16083 1-231): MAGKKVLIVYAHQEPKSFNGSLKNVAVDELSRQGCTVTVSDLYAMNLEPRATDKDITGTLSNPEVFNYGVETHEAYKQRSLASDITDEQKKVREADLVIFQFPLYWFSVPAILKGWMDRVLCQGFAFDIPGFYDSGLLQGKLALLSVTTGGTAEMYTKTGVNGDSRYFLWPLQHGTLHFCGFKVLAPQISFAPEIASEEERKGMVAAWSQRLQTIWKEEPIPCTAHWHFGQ
Protocol: To establish direct target engagement and cell membrane permeability, a cellular thermal shift assay (CETSA) was carried out, using leading QR2is YB’s-537, 800, and 808. Following a 1 hour preincubation with 5 μM of the QR2is or vehicle, thermal aggregation curves (Taggs) of QR2 expressed in HEK293T were measured in increasing temperatures. All QR2is increased QR2 thermal stability compared with vehicle (Supplemental Figure 2A). Based on the Tagg curves we selected 73°C for isothermal dose-response fingerprint (IDTRF) experiments (Supplemental Figure 2B). The ITDRF allowed the relative quantification of the binding of each of the QR2is to QR2, measured as the EC50 (Figure 3A). […] We evaluated the safety of the QR2is using cell toxicity and viability assays. […] Cell viability was assessed by XTT assay in HEK239T cells, using a dose response, with 3- or 24-hour incubations of the leading QR2is. No sign of toxicity was seen (Figure 3C). Next, we wanted to assess if, similar to QR2 KO, QR2is can reduce cellular ROS in HCT116 cells and see whether any observable effect is occluded in QR2Δ cells. […] We then assessed WT HCT116 cells by immunoblot (Supplemental Figure 2, C and D), after being treated with YB-800 (2 μM) for 4 consecutive days.
H2DCFDA ROS assay was carried out according to established protocols, with some adjustment (Supplemental Methods) ([6]). Cell toxicity was measured via ATP depletion (CellTiter Glo, Promega) in THLE-2 cells (ATCC, CRL-2706), following 72 hours of exposure to the test compounds, and cell viability was assessed using XTT assay (Biological Industries) according to manufacturers protocols. CETSA was performed as previously described ([53]) with some modifications, using QR2 (Santa Cruz, sc-271665) and SOD1 (Santa Cruz, sc-17767) antibodies. SDS-PAGE and immunoblot imaging were carried out as previously described ([55]), using Tubulin (Sigma-Aldrich, SAB4500087), QR2 (Santa Cruz, sc-271665), NDUFA9 (AbCam, ab14713) and CD73 (Cell Signaling Technology, D7F9A) antibodies. […]
HEK293FT cells were cultured with penicillin- streptomycin antibiotics in Invitrogen DMEM (Thermo
Fisher Scientific) with 10% fetal bovine serum a nd L -glutamine, and grown to 80-90% confluence in 100
mm plates, while being passaged every 2–3 d. […]
Cellular The rm a l Shift Assay (CETSA)
The CETSA assay was performed as described(54) with some modifications. Bri efl y, HEK293T cel ls wer e
trypsinized (Biological Indust ri es), washed in PBS (Sigma-Aldrich) and then suspended in PBS containing
protease inhibitor cocktail (Roche). The suspended cells were then divided into two Eppendorf tubes and
were treated with either compound or DMSO (Sigma-Aldrich) for 1h at 37 °C with shaking. Following
treatment, each sample was divided into PCR tubes (100µL/tube) and subjected to a temperature gradient
(ranging fr om 63 to 80 °C) for 3 minutes. Cell lysates we r e obtained by 3- cycles of freeze- t ha w using li qui d
nitrogen and a thermal bl ock set to 25 °C. Samples were then centrifuged at 15,000rpm at 4 °C f or 20min a nd
were subsequently analyzed by Western Blot of QR2 (1:100, Santa Cruz; sc-271665). The isothermal
concentration response fingerprint (ITDRF) experiments were done using a constant temperature of 73 °C.
Band intensities were normalized to the highest concentration and SOD1 levels (1:200, Santa Cruz; sc -
17767). Analysis of the results wer e done in accordance to Jafari et a l .( 63) us i ng GraphPad Pr i sm software.

QR1 = biological target: T2, QR1 (Homo sapiens, UniProt P15559); assay: QR1 selectivity assay, fluorescence; type: biochemical; settings: Figure 2D; readout not stated
T2 construct: purchased Sigma-Aldrich
From the text: A drug discovery campaign strategy was initiated to screen compounds for QR2-specific, cell-free inhibition and in vitro activity, followed by SAR optimization (Figure 2A) to achieve highly specific and potent QR2 inhibitor synthesis. In order to establish a varied and chemically amenable starting point, we developed a high-throughput QR2 assay (Supplemental Methods) that we screened against a library with approximately 200,000 compounds. […] Compounds that replicated the initial hit result were then assayed similarly against QR1 to evaluate compound specificity (Figure 2B). From the HTS, a chemically tractable and attractive series of compounds containing a sulfone flanked by an amine and a heterocycle were identified and selected for SAR development (Figure 2C, Supplemental Methods, Supplemental Table 1, and Supplemental Table 2). […]
menadione and 10 nM of QR2) were dispensed in 1536-well black Nunc plates (Thermo-Fisher) using aMultidrop™ Combi Reagent Dispenser (Thermo-Fisher) and pre-incubated with compounds for 10min. BNAH (200µM) was t hen added (3 µL) to the reaction using a BioNex Solutions BNX1536plate washer and the plates were incubated for another 10 min. Fluorescence intensity was followed in a PHERAstar FS multi-mode plate reader (BMG Labtech) us i ng an optic module with excitation at 360 nm and emission at 470 nm. The initial HTS includedapproximately 200,000 compounds at a single concentrationof 5 µM. The chemical libraries used were Selleck Chemicals Bioactives, the Drug-like set from Enamine, HitFinder collection from Maybridge, Spectrum Collection from Microsource, Lopa c from Sigma -Aldrich and the diversity set s from Chem Div and Che m Br idge .
Initial ‘‘hit’’ compounds were defined as causing >30% reduction of enzyme activity. Compounds suspected to be fluorescent were re -assayed in an absorbance assay at 350 nm using the same reaction but in a higher volume (100 µL), in a transparent plate (Greiner Bio- One). ‘‘Hit’’ compounds resulting from both the fluorescence and absorbance assay wer e t ested in a concentration- response, and IC50 values were de t er mi ne d. In parallel, the same

T2 sequence (P15559 whole entry): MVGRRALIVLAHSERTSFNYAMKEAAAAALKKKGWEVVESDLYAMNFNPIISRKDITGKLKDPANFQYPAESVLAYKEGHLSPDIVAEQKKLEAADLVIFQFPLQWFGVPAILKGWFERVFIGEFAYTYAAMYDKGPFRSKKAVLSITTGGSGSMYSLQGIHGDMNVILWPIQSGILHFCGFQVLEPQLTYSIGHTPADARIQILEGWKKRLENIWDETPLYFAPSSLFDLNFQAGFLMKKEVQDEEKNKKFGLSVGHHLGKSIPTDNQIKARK

Structure (SMILES) | EC50 (QR2 expressed in HEK293T) [nM] | QR2 stabilization signal, ITDRF (replicates) (QR2 expressed in HEK293T; M -5) | QR2 stabilization signal, ITDRF (replicates) (QR2 expressed in HEK293T; M -5.6) | QR2 stabilization signal, ITDRF (replicates) (QR2 expressed in HEK293T; M -5.9) | QR2 stabilization signal, ITDRF (replicates) (QR2 expressed in HEK293T; M -6.2) | QR2 stabilization signal, ITDRF (replicates) (QR2 expressed in HEK293T; M -6.5) | QR2 stabilization signal, ITDRF (replicates) (QR2 expressed in HEK293T; M -6.8) | QR2 stabilization signal, ITDRF (replicates) (QR2 expressed in HEK293T; M -7.1) | QR2 stabilization signal, ITDRF (replicates) (QR2 expressed in HEK293T; M -7.4) | QR2 stabilization signal, ITDRF (replicates) (QR2 expressed in HEK293T; M -7.7) | QR2 stabilization signal, ITDRF (replicates) (QR2 expressed in HEK293T; M -8) | QR2 stabilization signal, ITDRF (replicates) (QR2 expressed in HEK293T; M -9) | IC50 (QR1) [nM]
Cc1ccc(-c2cn3cccc(C)c3n2)cc1S(=O)(=O)N1CCC(C)CC1 [YB-800] | 34 | 4070 and 3736 | 4506 and 4561 and 4867 | 4786 and 3969 and 5175 | 5056 and 3732 and 5224 | 4815 and 4201 and 4200 | 4651 and 3683 and 3564 | 3508 and 2203 and 2700 | 2230 and 1871 and 2017 | 1054 and 942 and 1103 | 655 and 480 and 469 | 36 and 24 and 14 | > 9990
Cc1ccc(-c2cn3cccc(C)c3n2)cc1S(=O)(=O)N1CCNCC1 [YB-537] | 129 | 8037 and 7667 | 10469 and 7617 and 6857 | 10266 and 7463 and 6486 | 8878 and 6878 and 4582 | 6804 and 5633 | 3383 and 3296 and 2262 | 1653 and 1901 and 1028 | 762 and 749 and 458 | 410 and 416 | 212 and 226 and 182 | 110 and 98 and 105 | > 9990
Cc1ccc(-c2cn3cccc(C)c3n2)cc1S(=O)(=O)N1CCCC1 [YB-808] | 13 | 11691 and 8388 and 13855 | 12608 and 8899 and 18621 | 7977 and 16388 | 13431 and 8528 and 16152 | 13807 and 8233 and 15986 | 13304 and 17220 | 11995 and 8077 and 17779 | 9109 and 4692 and 13840 | 6837 and 3416 and 9444 | 2555 and 1788 and 4021 | 121 and 492 and 263 | 
